Measurements published in ChEMBL document CHEMBL1134814, “New anti-MRSA cephalosporins with a basic aminopyridine at the C-7 position” (2001).
Converted amounts (≈) assume the structure as drawn.

Tests used:
Type in all cases: functional
Staphylococcus aureus [1] = experiment: In vitro inhibition of growth of methicillin-resistant Staphylococcus aureus MRSA spain 356 (clinical isolates)
Staphylococcus aureus [2] = experiment: In vitro inhibition of growth of methicillin-resistant Staphylococcus aureus MRSA ATCC 335893 (clinical isolates)
Staphylococcus aureus [3] = experiment: In vitro inhibition of growth of methicillin-resistant Staphylococcus aureus MRSA 76 (clinical isolates)

NCCSCc1csc(SC2=C(C(=O)O)N3C(=O)[C@@H](NC(=O)/C(=N\O)c4cccc(N)n4)[C@H]3SC2)n1
MIC (Staphylococcus aureus [1]): 2 µg/mL (≈ 3.52 µM)
MIC (Staphylococcus aureus [2]): 1 µg/mL (≈ 1.76 µM)
MIC (Staphylococcus aureus [3]): 2 µg/mL (≈ 3.52 µM)

NCCSCc1nc(SCCN)sc1SC1=C(C(=O)O)N2C(=O)[C@@H](NC(=O)/C(=N\O)c3cccc(N)n3)[C@H]2SC1
MIC (Staphylococcus aureus [1]): 1 µg/mL (≈ 1.56 µM)
MIC (Staphylococcus aureus [2]): 1 µg/mL (≈ 1.56 µM)
MIC (Staphylococcus aureus [3]): 1 µg/mL (≈ 1.56 µM)

NCCSCc1nsc(SC2=C(C(=O)O)N3C(=O)[C@@H](NC(=O)/C(=N\O)c4cccc(N)n4)[C@H]3SC2)n1
MIC (Staphylococcus aureus [1]): 4 µg/mL (≈ 7.03 µM)
MIC (Staphylococcus aureus [2]): 2 µg/mL (≈ 3.52 µM)
MIC (Staphylococcus aureus [3]): 4 µg/mL (≈ 7.03 µM)

C[C@@H](O)[C@H]1C(=O)N2C(C(=O)O)=C(SCCNC=N)C[C@H]12 [IMIPENEM ANHYDROUS]
MIC (Staphylococcus aureus [1]): 32 µg/mL (≈ 107 µM)
MIC (Staphylococcus aureus [2]): 32 µg/mL (≈ 107 µM)
MIC (Staphylococcus aureus [3]): 32 µg/mL (≈ 107 µM)

NCCSCc1nnsc1SC1=C(C(=O)O)N2C(=O)[C@@H](NC(=O)/C(=N\O)c3cccc(N)n3)[C@H]2SC1
MIC (Staphylococcus aureus [1]): 1 µg/mL (≈ 1.76 µM)
MIC (Staphylococcus aureus [2]): 1 µg/mL (≈ 1.76 µM)
MIC (Staphylococcus aureus [3]): 1 µg/mL (≈ 1.76 µM)

COc1nc(CSCCN)c(SC2=C(C(=O)O)N3C(=O)[C@@H](NC(=O)/C(=N\O)c4cccc(N)n4)[C@H]3SC2)s1
MIC (Staphylococcus aureus [1]): 4 µg/mL (≈ 6.69 µM)
MIC (Staphylococcus aureus [2]): 4 µg/mL (≈ 6.69 µM)
MIC (Staphylococcus aureus [3]): 4 µg/mL (≈ 6.69 µM)

NCCCSc1nsc(SC2=C(C(=O)O)N3C(=O)[C@@H](NC(=O)/C(=N\O)c4cccc(N)n4)[C@H]3SC2)n1
MIC (Staphylococcus aureus [1]): 2 µg/mL (≈ 3.52 µM)
MIC (Staphylococcus aureus [2]): 2 µg/mL (≈ 3.52 µM)
MIC (Staphylococcus aureus [3]): 2 µg/mL (≈ 3.52 µM)

NCCSCc1nc(N)sc1SC1=C(C(=O)O)N2C(=O)[C@@H](NC(=O)/C(=N\O)c3cccc(N)n3)[C@H]2SC1
MIC (Staphylococcus aureus [1]): 4 µg/mL (≈ 6.86 µM)
MIC (Staphylococcus aureus [2]): 2 µg/mL (≈ 3.43 µM)
MIC (Staphylococcus aureus [3]): 8 µg/mL (≈ 13.7 µM)

NCCSCc1ncsc1SC1=C(C(=O)O)N2C(=O)[C@@H](NC(=O)/C(=N\O)c3cccc(N)n3)[C@H]2SC1
MIC (Staphylococcus aureus [1]): 2 µg/mL (≈ 3.52 µM)
MIC (Staphylococcus aureus [2]): 1 µg/mL (≈ 1.76 µM)
MIC (Staphylococcus aureus [3]): 2 µg/mL (≈ 3.52 µM)

NCCSc1nsc(SC2=C(C(=O)O)N3C(=O)[C@@H](NC(=O)/C(=N\O)c4cccc(N)n4)[C@H]3SC2)n1
MIC (Staphylococcus aureus [1]): 2 µg/mL (≈ 3.61 µM)
MIC (Staphylococcus aureus [2]): 2 µg/mL (≈ 3.61 µM)
MIC (Staphylococcus aureus [3]): 2 µg/mL (≈ 3.61 µM)

NCCSCc1ccccc1SC1=C(C(=O)O)N2C(=O)[C@@H](NC(=O)/C(=N\O)c3cccc(N)n3)[C@H]2SC1
MIC (Staphylococcus aureus [1]): 1 µg/mL (≈ 1.78 µM)
MIC (Staphylococcus aureus [2]): 1 µg/mL (≈ 1.78 µM)
MIC (Staphylococcus aureus [3]): 1 µg/mL (≈ 1.78 µM)

NCCSc1cncc(SC2=C(C(=O)O)N3C(=O)[C@@H](NC(=O)/C(=N\O)c4cccc(N)n4)[C@H]3SC2)n1
MIC (Staphylococcus aureus [1]): 16 µg/mL (≈ 29.2 µM)
MIC (Staphylococcus aureus [2]): 8 µg/mL (≈ 14.6 µM)
MIC (Staphylococcus aureus [3]): 16 µg/mL (≈ 29.2 µM)

NCCSCc1nnsc1SC1=C(C(=O)O)N2C(=O)[C@@H](NC(=O)/C(=N\O)c3csc(N)n3)[C@H]2SC1
MIC (Staphylococcus aureus [1]): 1 µg/mL (≈ 1.74 µM)
MIC (Staphylococcus aureus [2]): 1 µg/mL (≈ 1.74 µM)
MIC (Staphylococcus aureus [3]): 1 µg/mL (≈ 1.74 µM)

NCCSCc1cnccc1SC1=C(C(=O)O)N2C(=O)[C@@H](NC(=O)/C(=N\O)c3cccc(N)n3)[C@H]2SC1
MIC (Staphylococcus aureus [1]): 2 µg/mL (≈ 3.56 µM)
MIC (Staphylococcus aureus [2]): 2 µg/mL (≈ 3.56 µM)
MIC (Staphylococcus aureus [3]): 1 µg/mL (≈ 1.78 µM)

NCCSCc1cnccc1SC1=C(C(=O)O)N2C(=O)[C@@H](NC(=O)/C(=N\O)c3nc(N)sc3Cl)[C@H]2SC1
MIC (Staphylococcus aureus [1]): 1 µg/mL (≈ 1.66 µM)
MIC (Staphylococcus aureus [2]): 1 µg/mL (≈ 1.66 µM)
MIC (Staphylococcus aureus [3]): 1 µg/mL (≈ 1.66 µM)

NCCSCc1nc(Cl)sc1SC1=C(C(=O)O)N2C(=O)[C@@H](NC(=O)/C(=N\O)c3cccc(N)n3)[C@H]2SC1
MIC (Staphylococcus aureus [1]): 1 µg/mL (≈ 1.66 µM)
MIC (Staphylococcus aureus [2]): 1 µg/mL (≈ 1.66 µM)
MIC (Staphylococcus aureus [3]): 2 µg/mL (≈ 3.32 µM)

NCCSc1nccnc1SC1=C(C(=O)O)N2C(=O)[C@@H](NC(=O)/C(=N\O)c3cccc(N)n3)[C@H]2SC1
MIC (Staphylococcus aureus [1]): 2 µg/mL (≈ 3.65 µM)
MIC (Staphylococcus aureus [2]): 2 µg/mL (≈ 3.65 µM)
MIC (Staphylococcus aureus [3]): 2 µg/mL (≈ 3.65 µM)

NCCSc1nccc(SC2=C(C(=O)O)N3C(=O)[C@@H](NC(=O)/C(=N\O)c4cccc(N)n4)[C@H]3SC2)n1
MIC (Staphylococcus aureus [1]): 16 µg/mL (≈ 29.2 µM)
MIC (Staphylococcus aureus [2]): 8 µg/mL (≈ 14.6 µM)
MIC (Staphylococcus aureus [3]): 16 µg/mL (≈ 29.2 µM)

Cc1nc(CSCCN)c(SC2=C(C(=O)O)N3C(=O)[C@@H](NC(=O)/C(=N\O)c4cccc(N)n4)[C@H]3SC2)s1
MIC (Staphylococcus aureus [1]): 2 µg/mL (≈ 3.44 µM)
MIC (Staphylococcus aureus [2]): 2 µg/mL (≈ 3.44 µM)
MIC (Staphylococcus aureus [3]): 2 µg/mL (≈ 3.44 µM)
